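Following 48 hours of exposure in 96-well plates, responses at five concentrations were used to interpolate endpoints linearly. TGI: total growth inhibition.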
How the values were obtained:
Test in all cases: NCI-60 cell line screen, 48 h
[1] = test system: M14 melanoma
[2] = test system: A549 NSCLC
[3] = test system: LOX IMVI melanoma
[4] = test system: HCT-15 colon
[5] = test system: SW-620 colon
[6] = test system: UACC-62 melanoma
[7] = test system: CAKI-1 renal
[8] = test system: HOP-92 NSCLC
[9] = test system: HS 578T breast
[10] = test system: KM12 colon
[11] = test system: 786-0 renal
[12] = test system: IGROV1 ovarian
[13] = test system: NCI-H522 lung
[14] = test system: MCF7 breast
[15] = test system: NCI/ADR-RES ovarian
[16] = test system: MDA-MB-231 breast
[17] = test system: SF-539 CNS
[18] = test system: U251 CNS
[19] = test system: MDA-N
[20] = test system: T-47D breast
[21] = test system: EKVX NSCLC
[22] = test system: TK-10 renal
[23] = test system: SF-295 CNS
[24] = test system: NCI-H226 lung
[25] = test system: BT-549 breast
[26] = test system: SR leukemia
[27] = test system: HCT-116 colon
[28] = test system: NCI-H460 lung
[29] = test system: MOLT-4 leukemia
[30] = test system: OVCAR-3 ovarian
[31] = test system: OVCAR-5 ovarian
[32] = test system: SK-OV-3 ovarian
[33] = test system: A498 renal
[34] = test system: MDA-MB-435
[35] = test system: UACC-257 melanoma
[36] = test system: SK-MEL-5 melanoma
[37] = test system: COLO 205 colon
[38] = test system: SF-268 CNS
[39] = test system: MALME-3M melanoma
[40] = test system: UO-31 renal
[41] = test system: HT29 colon
[42] = test system: RXF 393 renal
[43] = test system: PC-3 prostate
[44] = test system: K-562 leukemia
[45] = test system: ACHN renal
[46] = test system: SNB-75 CNS
[47] = test system: RPMI-8226 leukemia
[48] = test system: OVCAR-4 ovarian
[49] = test system: SNB-19 CNS
[50] = test system: HOP-62 NSCLC
[51] = test system: OVCAR-8 ovarian
[52] = test system: CCRF-CEM leukemia
[53] = test system: NCI-H23 lung
[54] = test system: SK-MEL-2 melanoma
[55] = test system: HCC-2998 colon
[56] = test system: DU-145 prostate
[57] = test system: SN12C renal
[58] = test system: SK-MEL-28 melanoma
[59] = test system: HL-60(TB) leukemia

`COc1ccc2c(ccc3c(COC(=O)NC(C)C)c(COC(=O)NC(C)C)n(C)c32)c1` was tested, and the TGI [1] was 22.1 µM, the TGI [2] was 55.2 µM and the TGI [3] was 19.6 µM. The TGI [4] was 28.9 µM, the TGI [5] was 32.8 µM and the TGI [6] was 18.4 µM. It also gave a TGI [7] of 8.56 µM, a TGI [8] of 27.2 µM and a TGI [9] of 38.2 µM. The TGI [10] was 25.4 µM, the TGI [11] was 20.8 µM and the TGI [12] was 26 µM. It also gave a TGI [13] of 12.8 µM, a TGI [14] of 93.5 µM and a TGI [15] of 22.9 µM. It also gave a TGI [16] of 34.2 µM, a TGI [17] of 20.9 µM and a TGI [18] of 28.5 µM. It also gave a TGI [19] of 24.7 µM, a TGI [20] of 82.6 µM and a TGI [21] of 44.8 µM. The TGI [22] was 47.8 µM, the TGI [23] was 46.2 µM and the TGI [24] was 23.2 µM. The TGI [25] was 29.4 µM, the TGI [26] was greater than 100 µM and the TGI [27] was 17.4 µM. For the same compound, the TGI [28] was 2.04 µM, the TGI [29] was greater than 100 µM and the TGI [30] was 26.8 µM. For the same compound, the TGI [31] was 30.8 µM, the TGI [32] was 32.5 µM and the TGI [33] was 21 µM. For the same compound, the TGI [34] was 44.1 µM, the TGI [35] was 27.1 µM and the TGI [36] was 28.4 µM. The TGI [37] was 22.6 µM, the TGI [38] was 29.7 µM and the TGI [39] was 12.2 µM. For the same compound, the TGI [40] was 28.9 µM, the TGI [41] was 26.5 µM and the TGI [42] was 22.2 µM. It also gave a TGI [43] of 24.3 µM, a TGI [44] greater than 100 µM and a TGI [45] of 7.13 µM. The TGI [46] was 15.8 µM, the TGI [47] was greater than 100 µM and the TGI [48] was 28 µM. For the same compound, the TGI [49] was greater than 100 µM, the TGI [50] was 20.9 µM and the TGI [51] was 34.2 µM. The TGI [52] was greater than 100 µM, the TGI [53] was 16 µM and the TGI [54] was 32.5 µM.
`COc1ccc(OC)c(-c2cc(=O)c3c(OC)c(OC)c(OC)c(OC)c3o2)c1` was tested, and the TGI [1] was greater than 100 µM, the TGI [2] was greater than 100 µM and the TGI [3] was 76.1 µM. It also gave a TGI [4] of 77.5 µM, a TGI [55] of 92.1 µM and a TGI [5] greater than 100 µM. It also gave a TGI [6] of 64.3 µM, a TGI [7] greater than 100 µM and a TGI [8] of 57.7 µM. For the same compound, the TGI [9] was greater than 100 µM, the TGI [11] was 92.2 µM and the TGI [56] was greater than 100 µM. For the same compound, the TGI [12] was greater than 100 µM, the TGI [57] was greater than 100 µM and the TGI [13] was 46.4 µM. The TGI [14] was 55.5 µM, the TGI [15] was 82.8 µM and the TGI [16] was greater than 100 µM. For the same compound, the TGI [17] was greater than 100 µM, the TGI [18] was greater than 100 µM and the TGI [19] was greater than 100 µM. It also gave a TGI [20] of 21.3 µM, a TGI [21] greater than 100 µM and a TGI [58] greater than 100 µM. The TGI [22] was greater than 100 µM, the TGI [23] was 48.4 µM and the TGI [24] was 77.8 µM. It also gave a TGI [25] greater than 100 µM, a TGI [59] greater than 100 µM and a TGI [26] greater than 100 µM. The TGI [27] was greater than 100 µM, the TGI [28] was greater than 100 µM and the TGI [29] was 63.2 µM. It also gave a TGI [30] of 75.3 µM, a TGI [31] greater than 100 µM and a TGI [32] of 98.7 µM. The TGI [33] was greater than 100 µM, the TGI [34] was greater than 100 µM and the TGI [35] was greater than 100 µM. It also gave a TGI [36] of 39.1 µM, a TGI [37] of 31.6 µM and a TGI [38] greater than 100 µM. The TGI [39] was greater than 100 µM, the TGI [40] was greater than 100 µM and the TGI [41] was greater than 100 µM. It also gave a TGI [42] of 77.7 µM, a TGI [44] greater than 100 µM and a TGI [45] of 71.3 µM. It also gave a TGI [46] greater than 100 µM, a TGI [47] of 76 µM and a TGI [48] of 88.7 µM. For the same compound, the TGI [49] was greater than 100 µM, the TGI [50] was 79.5 µM and the TGI [51] was greater than 100 µM. The TGI [52] was greater than 100 µM, the TGI [53] was greater than 100 µM and the TGI [54] was 49.3 µM.
For `CC(=O)C1(N=Nc2ccc(S(N)(=O)=O)cc2)CCOC1=O` (stereo not given), the TGI [1] was greater than 100 µM, the TGI [2] was greater than 100 µM and the TGI [3] was greater than 100 µM. It also gave a TGI [4] greater than 100 µM, a TGI [5] greater than 100 µM and a TGI [6] greater than 100 µM. For the same compound, the TGI [7] was greater than 100 µM, the TGI [8] was greater than 100 µM and the TGI [9] was greater than 100 µM. The TGI [10] was greater than 100 µM, the TGI [11] was greater than 100 µM and the TGI [56] was greater than 100 µM. The TGI [12] was greater than 100 µM, the TGI [57] was greater than 100 µM and the TGI [13] was greater than 100 µM. The TGI [14] was greater than 100 µM, the TGI [15] was greater than 100 µM and the TGI [16] was greater than 100 µM. It also gave a TGI [17] greater than 100 µM, a TGI [18] greater than 100 µM and a TGI [19] greater than 100 µM. It also gave a TGI [20] greater than 100 µM, a TGI [21] greater than 100 µM and a TGI [58] greater than 100 µM. For the same compound, the TGI [22] was greater than 100 µM, the TGI [23] was greater than 100 µM and the TGI [24] was greater than 100 µM. The TGI [25] was greater than 100 µM, the TGI [59] was greater than 100 µM and the TGI [27] was greater than 100 µM. It also gave a TGI [28] greater than 100 µM, a TGI [30] greater than 100 µM and a TGI [31] greater than 100 µM. The TGI [32] was greater than 100 µM, the TGI [33] was greater than 100 µM and the TGI [34] was greater than 100 µM. The TGI [35] was greater than 100 µM, the TGI [36] was greater than 100 µM and the TGI [37] was greater than 100 µM. For the same compound, the TGI [38] was greater than 100 µM, the TGI [39] was greater than 100 µM and the TGI [40] was greater than 100 µM. The TGI [41] was greater than 100 µM, the TGI [42] was greater than 100 µM and the TGI [43] was greater than 100 µM. It also gave a TGI [45] greater than 100 µM, a TGI [46] greater than 100 µM and a TGI [48] greater than 100 µM. It also gave a TGI [49] greater than 100 µM, a TGI [50] greater than 100 µM and a TGI [51] greater than 100 µM. The TGI [52] was greater than 100 µM, the TGI [53] was greater than 100 µM and the TGI [54] was greater than 100 µM.
